Measurements from ChEMBL document CHEMBL1833931, “Simple synthetic toll-like receptor 2 ligands” (Bioorg Med Chem Lett, 2011).
Calls of active or inactive are those of the source. The calls are words filed in the database; no cut-off is given here.

Biological target: Toll-like receptor 2 (Homo sapiens) (UniProt O60603)
Experiment: Agonist activity at TLR2 expressed in HEK293 cells co-expressing pNF-kappaB-Luc Cis assessed as NF-kappaB activation at 100 nM by luciferase reporter gene assay
Type: functional, cell-based

Chain of Toll-like receptor 2 (Homo sapiens) (O60603 whole entry): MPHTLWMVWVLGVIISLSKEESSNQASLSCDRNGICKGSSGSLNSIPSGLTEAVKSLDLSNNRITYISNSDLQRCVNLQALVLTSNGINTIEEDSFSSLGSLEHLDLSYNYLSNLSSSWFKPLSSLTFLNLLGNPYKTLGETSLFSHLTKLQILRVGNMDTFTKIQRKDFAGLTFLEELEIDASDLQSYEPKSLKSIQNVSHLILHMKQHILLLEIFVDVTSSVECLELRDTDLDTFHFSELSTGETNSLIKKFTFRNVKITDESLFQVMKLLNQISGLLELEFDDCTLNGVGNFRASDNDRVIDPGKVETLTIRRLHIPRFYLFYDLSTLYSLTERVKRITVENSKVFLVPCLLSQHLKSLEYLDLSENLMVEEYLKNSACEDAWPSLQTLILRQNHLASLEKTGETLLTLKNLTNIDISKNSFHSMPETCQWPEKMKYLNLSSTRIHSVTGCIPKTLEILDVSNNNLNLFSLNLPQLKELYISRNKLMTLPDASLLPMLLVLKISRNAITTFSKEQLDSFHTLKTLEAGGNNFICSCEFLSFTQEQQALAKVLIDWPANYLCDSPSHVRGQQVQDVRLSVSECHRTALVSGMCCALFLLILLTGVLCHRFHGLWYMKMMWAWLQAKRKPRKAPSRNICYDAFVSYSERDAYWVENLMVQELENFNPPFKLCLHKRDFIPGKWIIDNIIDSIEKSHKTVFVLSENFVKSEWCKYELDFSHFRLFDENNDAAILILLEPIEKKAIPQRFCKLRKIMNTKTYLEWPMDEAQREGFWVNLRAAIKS

Activity	SMILES
Active	CCCCCCCCCCCCCCCC(=O)NC(CCCCCCCCCCCCCC)C(=O)O (configuration not stated)
Active	CCCCCCCCCCCCCCCC(=O)NC(CO)CCCCCCCCCCCCCC (configuration not stated)
